Earlier results in patent US20210401707A1, “AZOXYSTROBIN IN A SULFATE FREE PERSONAL CARE COMPOSITION” (The Procter & Gamble Company, priority 2020, published 2021).

SMILES: CO/C=C(/C(=O)OC)c1ccccc1Oc1cc(Oc2ccccc2C#N)ncn1 [Azoxystrobin]
- solubility in water: low solubility in water
